These results are taken from paper PMC3906007, “Discovery of a Small Molecule Agonist of Phosphatidylinositol 3-Kinase p110α That Reactivates Latent HIV-1” (PLoS ONE, 2014).

On the set-up of series [1]: method as in PMID 20936324. The note with it: phase II clinical trial, ovarian cancer; cited from earlier work.
The nature of series [2]: Cytotoxicity (MTT or CellTiter 96), HeLa. The note with it: human, HeLa cells; 24 hour incubation; mean ± SD, 3 replicates. The series is classed as cell-based. As to the method: (§1) Following a 24 hour incubation period, cell viability was measured using either the MTT (Roche Applied Science, Indianapolis, IN) or CellTiter 96 proliferation (Promega, WI) assay.
The nature of series [3]: Cytotoxicity (MTT or CellTiter 96), Jurkat. The series is classed as cell-based. The note with it: human, Jurkat cells; 24 hour incubation; mean ± SD, 3 replicates. Here is the method: as §1
The subject of series [4] is HIV-1 RNA expression in resting CD4+ T cells. The note with it: single 400 mg dose; 8 HIV-infected patients on suppressive cART; cited from earlier work.
A short description of series [5]: Cytotoxicity (MTT or CellTiter 96), 293T. The note with it: human, 293T cells; 24 hour incubation; mean ± SD, 3 replicates. The series is classed as cell-based. As to the method:
as §1

Series [6] has as its system latent HIV-1 in CD8+-depleted MNC. The series is classed as cell-based. The note with it: across all four donors; 0.5 or 2 µM. An excerpt:
Healthy HIV-1 uninfected blood donors and HIV-1-infected donors on suppressive cART with plasma HIV-1 RNA less than 50 copies/mL for >2 year provided written informed consent and underwent a large volume phlebotomy (100–200 mLs). The protocol for blood donation was approved by the Institutional Review Board of the University of Pittsburgh (IRB #PRO10070203).
(§2) CD8+T-cells were depleted from whole blood using RosetteSep Human CD8 Depletion Cocktail (StemCell Technologies, Vancouver, BC) according to manufacturer's instructions. 2×10^6 CD4^+ MNC cells were seeded in triplicate per treatment in 48-well plates and allowed to rest overnight. […] Activation controls were treated with CD3/CD28 Dynabeads (Life Technologies, Grand Island, NY). After 7 days of incubation, supernatants from triplicate wells were pooled, centrifuged (500 g×5 min), and stored at −80°C. HIV-1 RNA levels in supernatants were determined using the COBAS® AmpliPrep/COBAS® TaqMan® HIV-1 Test, v2.0 (Roche, Indianapolis, IN).

Series [7] is described as follows: Cytotoxicity (MTT or CellTiter 96), CD8+-depleted MNC. The note with it: human, CD8+-depleted mononuclear cells (MNC) from whole blood; 24 hour incubation; mean of 2 replicates. The series is classed as cell-based. As to the method: as §1
as §2, with “overnight. All wells were maintained in 81 nM efavirenz.” for “overnight.”

For the next series, the system named is PI3K p110δ RNA. The series can be described thus: PI3K isoform RNA transcript levels in J89GFP cells, p110δ. The series is classed as cell-based. The note with it: 5 µM.
Series [8] has as its system latent HIV-1 in J89GFP cells. In words: Latent HIV-1 reactivation in J89GFP cells (EGFP positive cells, flow cytometry). The series is classed as cell-based. The note with it: J89GFP. As to the method: Three different cell lines of HIV-1 latency were used in this study. These included J89GFP, U1 and ACH-2 cells. The J89GFP cells were a kind gift from Dr. David Levy. The ACH-2 and U1 cells were obtained through the AIDS Research and Reference Reagent Program, Division of AIDS, NIAID, NIH: Dr. Thomas Folks contributor [19]–[21]. Reactivation of latent HIV-1 in the J89GFP cells was measured by quantifying the percentage of EGFP positive cells using a BD FACScan flow cytometer with BD FACSDiva software (BD Biosciences, CA), as described previously. Reactivation of latent HIV-1 in the ACH-2 and U 1 cells was assessed by quantitative analysis of initiated and elongated HIV-1 transcripts, as described previously. All 3 cell lines were maintained in RMPI 1640 medium supplemented with 10% FBS, 0.3 mg/mL L-glutamine, 100 U/mL penicillin, and 100 µg/mL streptomycin at 37°C in humidified air with 5% CO2.
To identify novel activators of latent HIV-1 expression, we screened 640 pure natural products from the TimTec Natural Compound Library at a concentration of 10 ng/mL for 24 hrs in a Jurkat cell (J89GFP) model of latency for their cytotoxicity and ability to reactivate HIV-1 expression. J89GFP cells contain a stably integrated, full-length HIV-1 provirus with an enhanced GFP (EGFP) reporter incorporated into the viral genome. The viral genome in these cells is transcriptionally silent. However, upon stimulation viral transcription is activated and viral expression can be measured by EGFP production. […].

In the next series the test system is T cell. Also noted: method as in PMID 22732922. The note with it: cited from earlier work.

As for `CCC/C=C/C=C/C(=O)O[C@H]1/C(=C/C(=O)OC)C[C@H]2C[C@H]([C@@H](C)O)OC(=O)C[C@H](O)C[C@@H]3C[C@H](OC(C)=O)C(C)(C)[C@](O)(C[C@@H]4C/C(=C/C(=O)OC)C[C@H](/C=C/C(C)(C)[C@]1(O)O2)O4)O3` [bryostatin], the “Adverse event in study participants” value in series [1] is listed as “severe myalgia in all study participants”.
Turning to `O=C(CCCCCCC(=O)Nc1ccccc1)NO` [SAHA, vorinostat, reference compound], the cytotoxic concentration (CC50) – broadly, the concentration that lowers cell viability or growth by half – at 24 h in [2] was 11.3 ± 0.3 µM; in series [3] it was 10 ± 0.1 µM; in [5] it was 14.1 ± 0.2 µM; in series [7], 0.7 µM. In [4], the “HIV-1 RNA expression in resting CD4+ T cells” value is recorded as “induced an increase in HIV-1 RNA expression”. Besides, in series [6], the “Capacity to increase HIV-1 expression in the CD8+-depleted MNC” value was “very limited capacity”. Moreover, the “Effect on PI3K p110δ RNA transcript levels / gene expression” value in the series on PI3K p110δ RNA was “significantly up-regulate”.
With `CC(=O)O[C@@]12C[C@@H](C)[C@@]3(O)[C@@H](C=C(CO)C[C@]4(O)C(=O)C(C)=C[C@@H]34)[C@@H]1C2(C)C` [prostratin, reference compound], in series [8] (20 nM wortmannin), the “Latent HIV-1 reactivation activity in presence of PI3K inhibitor wortmannin” value is “remained unaffected”. Besides, in series [8] (500 nM Akt Inhibitor IV), the “Latent HIV-1 reactivation activity in presence of Akt Inhibitor IV” value is “remained unaffected”. For the same compound, the “Latent HIV-1 reactivation activity in presence of PKC inhibitor Gö6983” value in series [8] (500 nM Go6983) is recorded as “attenuated”. Further, the “Latent HIV-1 reactivation activity in presence of JNK inhibitor SP600125” value in series [8] (1 µM SP00125) was “remained unaffected”. Besides, in [8] (1 µM cyclosporin A), the “Latent HIV-1 reactivation activity in presence of NFAT/calcineurin inhibitor cyclosporin A” value was “remained unaffected”. Also, the “Global T cell activation” value in the series with T cell is given as “induces global T cell activation”.
